# Source: patent US8338611B2, “Opioid receptor antagonists” (Eli Lilly and Company, priority 2004, dated 2012)
# Where “and” joins values, the source holds several entries; their conditions need not be identical. Equal entries are not always repeated. Where two headings read alike, the source gives them in different places.
# Columns and labels:
# Type in all cases: biochemical
# [1] = target: T1, cloned human mu opioid receptor (Homo sapiens, UniProt P35372); test: GTP-γ-S Binding Assay, mu opioid receptor (Table 1: Receptor Binding); settings: membranes from cells expressing cloned human mu receptor
# T1 construct: expressed in transfected cells
# [2] = target: T2, cloned human kappa opioid receptor (Homo sapiens, UniProt P41145); test: GTP-γ-S Binding Assay, kappa opioid receptor (Table 1: Receptor Binding); settings: membranes from cells expressing cloned human kappa receptor
# T2 construct: expressed in transfected cells
# [3] = target: T3, cloned human delta opioid receptor (Homo sapiens, UniProt P41143); test: GTP-γ-S Binding Assay, delta opioid receptor (Table 1: Receptor Binding); settings: membranes from cells expressing cloned human delta receptor
# T3 construct: expressed in transfected cells
# Procedure: The functional antagonist potency (Kb) of the sample compounds was determined using the GTPγS binding assay. GTPgS-based functional assays provide an in vitro measure of the activity of opioid agonists and antagonists. Opioid reference compounds or test compound are incubated with membrane homogenate from cells expressing the cloned human mu, kappa or delta opioid receptor and radiolabeled [35S]GTPgS. If the compound activates the opioid receptor, an increase in the binding of radiolabeled GTPgS is observed. […] These tests provide an in vitro measurement of the activity of the compound at human opioid receptors. GTP-γ-S Binding Assay
# An SPA-based GTP-γ-S assay format was developed based on previous opioid (Emmerson et al., J. Pharm Exp Ther 278, 1121, 1996; Horng et al., Society for Neuroscience Abstracts, 434.6, 2000) and muscarinic (DeLapp et al., JPET 289, 946, 1999) assay formats. Membranes were resuspended in 20 mM HEPES, 100 mM NaCl, 5 mM MgCl2, 1 mM DTT, and 1 mM EDTA. Fifty (50) […], of GTP-γ-[35S], compound; membrane suspension (20 microgram/well), and wheat germ agglutinin coated SPA beads (1 mg/well) were added to clear bottom 96 well assay plates. GDP ([…]) was added to the membrane solution prior to addition to the assay plates. Plates were sealed and incubated for four hours at room temperature then placed in a refrigerator overnight to allow the beads to settle. Signal stability at 4° C. was determined to be >6O hours. Plates were warmed to room temperature and counted in a Wallac Microbeta scintillation counter. For antagonist assays, specific agonists were added at the following concentrations: (MOR) DAMGO 1 micromolar, (DOR) DPDPE 30 nM, (KOR) U69593 300 nM. Kb's were determined by Cheng-Prusoff equation (see Cheng and Prusoff, Biochem. Pharmacol. 22, 3099, 1973).
# [4] = read-out: Receptor Binding (Ki, nM) Mu
# T3 sequence (P41143 whole entry): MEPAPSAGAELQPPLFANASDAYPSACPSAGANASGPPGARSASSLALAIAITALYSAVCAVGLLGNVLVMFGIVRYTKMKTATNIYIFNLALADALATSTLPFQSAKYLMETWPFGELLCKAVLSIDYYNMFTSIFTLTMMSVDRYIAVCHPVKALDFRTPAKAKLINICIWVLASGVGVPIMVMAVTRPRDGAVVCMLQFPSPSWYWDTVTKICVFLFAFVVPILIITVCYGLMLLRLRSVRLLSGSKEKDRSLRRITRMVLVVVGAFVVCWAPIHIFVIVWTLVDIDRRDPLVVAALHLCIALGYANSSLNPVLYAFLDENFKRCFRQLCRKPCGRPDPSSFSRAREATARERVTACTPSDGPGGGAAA
# T2 sequence (P41145 whole entry): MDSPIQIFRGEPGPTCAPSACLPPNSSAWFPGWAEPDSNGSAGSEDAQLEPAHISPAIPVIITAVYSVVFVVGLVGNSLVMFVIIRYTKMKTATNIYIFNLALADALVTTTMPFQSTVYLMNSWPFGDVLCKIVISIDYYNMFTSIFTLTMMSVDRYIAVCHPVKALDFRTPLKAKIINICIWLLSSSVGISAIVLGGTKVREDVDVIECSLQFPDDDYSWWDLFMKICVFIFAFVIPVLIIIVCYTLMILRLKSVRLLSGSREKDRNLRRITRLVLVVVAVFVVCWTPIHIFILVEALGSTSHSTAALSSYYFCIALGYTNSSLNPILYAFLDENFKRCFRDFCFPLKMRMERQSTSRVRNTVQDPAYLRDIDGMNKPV
# T1 sequence (P35372 whole entry): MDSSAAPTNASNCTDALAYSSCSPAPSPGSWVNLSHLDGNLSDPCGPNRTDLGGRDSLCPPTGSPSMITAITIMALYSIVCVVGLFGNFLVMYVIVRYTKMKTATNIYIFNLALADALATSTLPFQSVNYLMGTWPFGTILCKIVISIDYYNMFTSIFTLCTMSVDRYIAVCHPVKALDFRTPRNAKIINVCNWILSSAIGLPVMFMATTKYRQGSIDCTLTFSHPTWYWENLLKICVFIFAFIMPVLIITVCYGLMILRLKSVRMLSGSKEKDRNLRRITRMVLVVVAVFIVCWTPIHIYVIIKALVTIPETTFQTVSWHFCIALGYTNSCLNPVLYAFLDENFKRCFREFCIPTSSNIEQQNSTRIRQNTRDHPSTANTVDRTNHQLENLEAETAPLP
Compound,"Ki [1, 4]",Ki [2] [nM],Ki [3] [nM],"Ki ([1]; Receptor Binding (Ki, nM) Mu) [nM]"
6-{4-[(2-Pyridin-4-yl-ethylamino)-methyl]-phenylsulfanyl}-nicotinamide [Example 19],107 nM,137,858,–
"CC(=O)c1ccc(Oc2ccc(CCNCc3ccccc3)cc2)cc1 [Example 5, 1-{4-[4-(2-Benzylamino-ethyl)-phenoxy]-phenyl}-ethanone]",1310 nM,> 5000,> 5000,–
"CC(=O)Oc1ccc(Oc2ccc(CCNCc3ccccc3)cc2)cc1 [Example 6, Acetic acid 4-[4-(2-benzylamino-ethyl)-phenoxy]phenyl ester]",229 nM,1620,3250,–
"NC(=O)c1ccc(Sc2ccc(CNCC3CC3)cc2)nc1 [Example 10, 6-{4-[(Cyclopropylmethyl-amino)-methyl]-phenylsulfanyl}-nicotinamide]",726 nM,> 5000,3040,–
"CC(C)CCNCc1ccc(Sc2ccc(C(N)=O)cn2)cc1 [Example 13, 6-{4-[(3-Methyl-butylamino)-methyl]-phenylsulfanyl}-nicotinamide]",563 nM,2440,3520,–
"NC(=O)c1ccc(S(=O)(=O)c2ccc(CNCCc3ccccc3)cc2)cc1 [Example 14, 4-[4-(Phenethylamino-methyl)-benzenesulfonyl]-benzamide]",86.4 nM,1020,714,–
"NC(=O)c1ccc([S+]([O-])c2ccc(CNCCc3ccccc3)cc2)cc1 (stereo not shown) [Example 15, 4-[4-(Phenethylamino-methyl)-benzenesulfinyl]-benzamide]",292 nM,654,1820,–
"NCCc1ccc(Nc2ccc(C(N)=O)cn2)cc1 [Example 16, 6-[4-(2-Amino-ethyl)-phenylamino]-nicotinamide]",–,1020,270,45.4
"NC(=O)c1ccc(Nc2ccc(CCNCc3ccccc3)cc2)nc1 [Example 17, 6-[4-(2-Benzylamino-ethyl)-phenylamino]-nicotinamide]",1350 nM,761,> 5000,–
"NC(=O)c1ccc(Nc2ccc(CCNCC3CCCCC3)cc2)nc1 [Example 18, 6-{4-[2-(Cyclohexylmethyl-amino)-ethyl]-phenylamino}-nicotinamide]",48.7 nM,466,278,–
"NC(=O)c1ccc(Nc2ccc(CNCc3ccccc3)cc2)nc1 [Example 20, 6-[4-(Benzylamino-methyl)-phenylamino]-nicotinamide]",73.2 nM,402,537,–
"NC(=O)c1ccc(Nc2ccc(CNCC3CCCCC3)cc2)nc1 [Example 21, 6-{4-[(Cyclohexylmethyl-amino)-methyl]-phenylamino}-nicotinamide]",> 3000 nM,> 4000,> 5000,–
"NC(=O)c1ccc(Nc2ccc(CNCCc3ccccc3)cc2)nc1 [Example 22, 6-[4-(Phenethylamino-methyl)-phenylamino]-nicotinamide]",> 3000 nM,> 4000,> 5000,–
"CC(=O)Nc1ccc(Oc2ccc(CCNC(=O)OC(C)(C)C)cc2)cc1 [Example 24, {2-[4-(4-Acetylamino-phenoxy)-phenyl]-ethyl}-carbamic acid tert-butyl ester]",198 nM,2670,4020,–
"CC(=O)Nc1ccc(Oc2ccc(CCN)cc2)cc1 [Example 25, N-{4-[4-(2-Amino-ethyl)-phenoxy]-phenyl}-acetamide]",–,3970,2510,67.5
"CCCCCCNCCc1ccc(Oc2ccc(NC(C)=O)cc2)cc1 [Example 27, N-{4-[4-(2-Hexylamino-ethyl)-phenoxy]-phenyl}-acetamide]",200 nM and 64.3 nM,–,–,–
"CC(=O)Nc1ccc(Oc2ccc(CCNCc3cccs3)cc2)cc1 [Example 28, N-[4-(4-{2-[(Thiophen-2-ylmethyl)-amino]-ethyl}-phenoxy)-phenyl]-acetamide]",26.9 nM,150,469,–
"CC(=O)Nc1ccc(Oc2ccc(CCNCCCc3ccccc3)cc2)cc1 [Example 29, N-(4-{4-[2-(3-Phenyl-propylamino)-ethyl]-phenoxy}-phenyl)-acetamide]",5.06 nM,731,62.5,–
"CC(=O)Nc1ccc(Oc2ccc(CCNCCC3CCCCC3)cc2)cc1 [Example 30, N-(4-{4-[2-(2-Cyclohexyl-ethylamino)-ethyl]-phenoxy}-phenyl)-acetamide]",18 nM,163,260,–
"CC(=O)Nc1ccc(Oc2ccc(CCNCc3ccco3)cc2)cc1 [Example 36, N-[4-(4-{2-[(Furan-2-ylmethyl)-amino]-ethyl}-phenoxy)-phenyl]-acetamide]",> 2500 nM,> 4000,> 5000,–
"CC(=O)Nc1ccc(Oc2ccc(CCNCc3cccc(Cl)c3)cc2)cc1 [Example 37, N-(4-{4-[2-(3-Chloro-benzylamino)-ethyl]-phenoxy}-phenyl)-acetamide]",1750 nM,> 4000,> 5000,–
"CC(=O)Nc1ccc(Oc2ccc(CCNCC(C)C)cc2)cc1 [Example 38, N-{4-[4-(2-Isobutylamino-ethyl)-phenoxy]-phenyl}-acetamide]",1720 nM,> 4000,> 5000,–
"CC(=O)Nc1ccc(Oc2ccc(CCNC3CCCCC3)cc2)cc1 [Example 39, N-{4-[4-(2-Cyclohexylamino-ethyl)-phenoxy]-phenyl}-acetamide]",> 2500 nM,> 4000,> 5000,–
"CC(=O)Nc1ccc(Oc2ccc(CCNCc3ccccc3C)cc2)cc1 [Example 40, N-(4-{4-[2-(2-Methyl-benzylamino)-ethyl]-phenoxy}-phenyl)-acetamide]",912 nM,> 4000,> 5000,–
